In brackets after ≈: the same amount, converted by molar mass.
What was measured:
mice [1] = assay: Effects on spontaneous activities in mice; type: in vivo; settings: for spontaneous activity compared with the vehicle control group: recorded at 0.5, 1, 2, 3 and 4 hours
Procedure: Chlorpromazine was administered at dose of […] in the positive control group, and the same volume of propylene glycol containing 0.9% sodium chloride injection was administered in the vehicle control group. Spontaneous activity was recorded at 0.5, 1, 2, 3 and 4 hours after drug administration. The injection volume was 0.2 ml/10 g and the administration rate was 0.2 ml/10 sec.

Kunming mice [2] = assay: Acute toxicology test, LD50 in mice (Bliss method); type: in vivo; settings: for Number of dead animals: 10 animals
Procedure: Kunming mice, half males and half females, with body weights of 18˜22 g, were administered the testing drug solution by injection 8 hours after fasting. The death status of animals was consecutively observed for 14 days after administration.

Kunming mice [3] = assay: Acute toxicology test, LD50 in mice (Bliss method); type: in vivo; settings: oral gavage; for Number of dead animals: 10 animals
mice [4] = assay: Effect on the hypnotic effect induced by sodium thiopental in mice; settings: 40 mg/kg sodium thiopental i.p. 30 minutes later
Procedure: The same volume of 0.9% sodium chloride injection containing propylene glycol was administered in the vehicle control group. 30 minute after drug administration, 40 mg/kg of sodium thiopental was administered to mice by intraperitoneal injection. The time for the loss of righting reflex and the time for the recovery were recorded. The injection volume was 0.2 ml/10 g, the administration rate was 0.2 ml/10 sec.

mice [5] = assay: Effect on the coordination of balancing in mice; type: in vivo; settings: intravenous injection
Procedure: Experiments were conducted in 9 administration groups, L-, D- and racemic ornidazole were administered to them at doses of 40, 80 and 160 mg/kg. Positive control group received chlorpromazine at a dose of 3 mg/kg.

Clostridium = assay: In vitro MIC determination, clinical anaerobic strains; type: cell-based; settings: 6 clinical strains, GAM broth, 72 hours anaerobic incubation at 35° C.
Procedure: (§1) Experimental strains: isolated from clinical specimens, and species identification were conducted.
(§2) Bacilli preparation: 4˜5 bacteria colonies with same pattern selected from anaerobic GAM plate were inoculated in GAM broth with inoculating loop. The bacteria was incubated at 35° C. under anaerobic condition until a slight turbidity was attained, and adjusted by means of sterilized saline (deoxygenated) so as to attain a turbidity equivalent to the No. 0.5 McFarland turbidity tube, then diluted with GAM broth (at 1:200) for later use.
(§3) MIC (Minimum Inhibitory Concentration) determination: the testing drugs and control drugs were diluted with GAM broth to different concentrations in the test tubes, followed by addition of equal volume of diluted Bacilli (at 1:200), MIC values were read 72 hours after anaerobic incubation at 35° C.

Bacteroides = assay: as above; type: cell-based; settings: 40 clinical strains, GAM broth, 72 hours anaerobic incubation at 35° C.
Procedure: as §1, §2, §3

Peptostreptococcus = assay: as above; type: cell-based; settings: Peptostreptococcus, 35 clinical strains, GAM broth, 72 hours anaerobic incubation at 35° C.
Procedure: as §1, §2, §3

Veillonella = assay: as above; type: cell-based; settings: 23 clinical strains, GAM broth, 72 hours anaerobic incubation at 35° C.
Procedure: as §1, §2, §3

Fusobacterium nucleatum = assay: as above; type: cell-based; settings: 11 clinical strains, GAM broth, 72 hours anaerobic incubation at 35° C.
Procedure: as §1, §2, §3

mice [6] = assay: Hypnotic effect of intravenous injection in mice (righting reflex); type: in vivo; settings: both, mouse, in vivo, iv, 160 mg/kg, 30 min
Procedure: White mice, half males and half females, fasted for eight hours. The disappearance of righting reflex in mice was observed. The number of animals who lost their righting reflex was recorded in 30 minutes after drug administration.

Beagle dogs = settings: dog, in vivo, iv, 200 mg/kg
Excerpt: 2. Toxicity Test in Beagle Dogs (Non-Rodent) After Intravenous Administration of L-ornidazole for Two Weeks
Beagle dogs, 4 dogs in each group with half females and half males, were divided into L-, D-, and racemic ornidazole groups.

Structure (SMILES): Cc1ncc([N+](=O)[O-])n1CC(O)CCl (racemic) [racemic ornidazole, ornidazole]
- recovery of spontaneous activity (mice [1]; 40 mg/kg intravenous): gradually become normal after 2 hours
- spontaneous activity compared with the vehicle control group (mice [1]; 40 mg/kg intravenous): reduced significantly 1 hour after administration
- recovery of spontaneous activity (mice [1]; 80 mg/kg intravenous): gradually become normal after 3 hours
- spontaneous activity compared with the vehicle control group (mice [1]; 80 mg/kg intravenous): reduced significantly at 0.5, 1 and 2 hours
- recovery of spontaneous activity (mice [1]; 160 mg/kg intravenous): gradually become normal after 4 hours
- spontaneous activity compared with the vehicle control group (mice [1]; 160 mg/kg intravenous): reduced significantly at 0.5, 1, 2 and 3 hours
- Death rate (Kunming mice [2]; intraperitoneal, 887.4 mg/kg): 0%
- Probability units (Y) (Kunming mice [2]; intraperitoneal, 887.4 mg/kg): 3.39
- Number of dead animals (Kunming mice [2]; intraperitoneal, 887.4 mg/kg): 0
- Death rate (Kunming mice [2]; intraperitoneal, 1044 mg/kg): 30%
- Probability units (Y) (Kunming mice [2]; intraperitoneal, 1044 mg/kg): 4.42
- Number of dead animals (Kunming mice [2]; intraperitoneal, 1044 mg/kg): 3
- Death rate (Kunming mice [2]; intraperitoneal, 1228 mg/kg): 80%
- Probability units (Y) (Kunming mice [2]; intraperitoneal, 1228 mg/kg): 5.46
- Number of dead animals (Kunming mice [2]; intraperitoneal, 1228 mg/kg): 8
- Death rate (Kunming mice [2]; intraperitoneal, 1445 mg/kg): 100%
- Probability units (Y) (Kunming mice [2]; intraperitoneal, 1445 mg/kg): 6.49
- Number of dead animals (Kunming mice [2]; intraperitoneal, 1445 mg/kg): 10
- Death rate (Kunming mice [2]; intraperitoneal, 1700 mg/kg): 100%
- Probability units (Y) (Kunming mice [2]; intraperitoneal, 1700 mg/kg): 7.52
- Number of dead animals (Kunming mice [2]; intraperitoneal, 1700 mg/kg): 10
- Death rate (Kunming mice [2]; intravenous, 243 mg/kg): 0%
- Probability units (Y) (Kunming mice [2]; intravenous, 243 mg/kg): 3.22
- Number of dead animals (Kunming mice [2]; intravenous, 243 mg/kg): 0
- Death rate (Kunming mice [2]; intravenous, 270 mg/kg): 30%
- Probability units (Y) (Kunming mice [2]; intravenous, 270 mg/kg): 4.06
- Number of dead animals (Kunming mice [2]; intravenous, 270 mg/kg): 3
- Death rate (Kunming mice [2]; intravenous, 300 mg/kg): 50%
- Probability units (Y) (Kunming mice [2]; intravenous, 300 mg/kg): 4.90
- Number of dead animals (Kunming mice [2]; intravenous, 300 mg/kg): 5
- Death rate (Kunming mice [2]; intravenous, 333 mg/kg): 50%
- Probability units (Y) (Kunming mice [2]; intravenous, 333 mg/kg): 5.73
- Number of dead animals (Kunming mice [2]; intravenous, 333 mg/kg): 5
- Death rate (Kunming mice [2]; intravenous, 370 mg/kg): 100%
- Probability units (Y) (Kunming mice [2]; intravenous, 370 mg/kg): 6.57
- Number of dead animals (Kunming mice [2]; intravenous, 370 mg/kg): 10
- Death rate (Kunming mice [2]; oral gavage, 655.4 mg/kg): 0%
- Probability units (Y) (Kunming mice [2]; oral gavage, 655.4 mg/kg): 3.20
- Death rate (Kunming mice [2]; oral gavage, 819.2 mg/kg): 20%
- Probability units (Y) (Kunming mice [2]; oral gavage, 819.2 mg/kg): 4.20
- Death rate (Kunming mice [2]; oral gavage, 1024 mg/kg): 70%
- Probability units (Y) (Kunming mice [2]; oral gavage, 1024 mg/kg): 5.19
- Probability units (Y) (Kunming mice [2]; oral gavage, 1280 mg/kg): 6.19
- Death rate (Kunming mice [2]; oral gavage, 1600 mg/kg): 100%
- Number of dead animals (Kunming mice [2]; oral gavage, 1600 mg/kg): 10
- Number of dead animals (Kunming mice [3]; 655.4 mg/kg): 0
- Number of dead animals (Kunming mice [3]; 819.2 mg/kg): 2
- Number of dead animals (Kunming mice [3]; 1024 mg/kg): 7
- Death rate (Kunming mice [3]; 1280 mg/kg): 90%
- Number of dead animals (Kunming mice [3]; 1280 mg/kg): 9
- Probability units (Y) (Kunming mice [3]; 1600 mg/kg): 7.19
- sleep latency induced by sodium thiopental, compared with the vehicle control group (mice [4]; 40 mg/kg intravenous): no significant reduction
- sleep latency induced by sodium thiopental, compared with the vehicle control group (mice [4]; 80 mg/kg intravenous): significantly reduced
- effect on the coordination and balance (number of falling animals) (mice [5]; 160 mg/kg): significant effect
- effect on the coordination and balance, compared with the vehicle control group (mice [5]; doses of 40 and 80 mg/kg): no significant effect
- MIC Range (Clostridium): 1.0~2.0 mg/L
- MIC50 (Clostridium; Clostridium, read-out: MIC50): 2 µg/mL (≈ 9.11 µM)
- MIC90 (Clostridium; Clostridium, read-out: MIC90): 2 µg/mL (≈ 9.11 µM)
- MIC Range (Bacteroides): 2.0~16.0 mg/L
- MIC50 (Bacteroides; Bacteroides, read-out: MIC50): 4 µg/mL (≈ 18.2 µM)
- MIC90 (Bacteroides; Bacteroides, read-out: MIC90): 8 µg/mL (≈ 36.4 µM)
- MIC50 (Peptostreptococcus; read-out: MIC50): 4 µg/mL (≈ 18.2 µM)
- MIC90 (Peptostreptococcus; read-out: MIC90): 8 µg/mL (≈ 36.4 µM)
- MIC Range (Veillonella): 2.0~16.0 mg/L
- MIC50 (Veillonella; Veillonella, read-out: MIC50): 4 µg/mL (≈ 18.2 µM)
- MIC90 (Veillonella; Veillonella, read-out: MIC90): 8 µg/mL (≈ 36.4 µM)
- MIC Range (Fusobacterium nucleatum): 1.0~32.0 mg/L
- MIC50 (Fusobacterium nucleatum; Fusobacterium nucleatum, read-out: MIC50): 2 µg/mL (≈ 9.11 µM)
- MIC90 (Fusobacterium nucleatum; Fusobacterium nucleatum, read-out: MIC90): 32 µg/mL (≈ 146 µM)
- number of mice with loss in righting reflex (mice [6]): 6 mice
- number of Purkinje cells in cerebellum (histological examination) (Beagle dogs): No reduction in the number of Purkinje cells and cellular degeneration was observed

From patent US8530507B2, “Use of levo-ornidazole in the preparation of anti-anaerobic bacteria infection drugs” (priority 2005, dated 2013)
